# Measured values published in publication PMC5638823, “Structural insights into the competitive inhibition of the ATP-gated P2X receptor channel” (Nature Communications, 2017).
# Target: T1, chicken P2X7 receptor (ckP2X7 WT) (Gallus gallus, UniProt A0A8V1A1T0)
# T1 construct: gene P2RX7; ckP2X7 WT (NCBI XP_001235163), expressed in HEK-293 cells
# Format: cell-based
# T1 sequence (A0A8V1A1T0 entry or part of it): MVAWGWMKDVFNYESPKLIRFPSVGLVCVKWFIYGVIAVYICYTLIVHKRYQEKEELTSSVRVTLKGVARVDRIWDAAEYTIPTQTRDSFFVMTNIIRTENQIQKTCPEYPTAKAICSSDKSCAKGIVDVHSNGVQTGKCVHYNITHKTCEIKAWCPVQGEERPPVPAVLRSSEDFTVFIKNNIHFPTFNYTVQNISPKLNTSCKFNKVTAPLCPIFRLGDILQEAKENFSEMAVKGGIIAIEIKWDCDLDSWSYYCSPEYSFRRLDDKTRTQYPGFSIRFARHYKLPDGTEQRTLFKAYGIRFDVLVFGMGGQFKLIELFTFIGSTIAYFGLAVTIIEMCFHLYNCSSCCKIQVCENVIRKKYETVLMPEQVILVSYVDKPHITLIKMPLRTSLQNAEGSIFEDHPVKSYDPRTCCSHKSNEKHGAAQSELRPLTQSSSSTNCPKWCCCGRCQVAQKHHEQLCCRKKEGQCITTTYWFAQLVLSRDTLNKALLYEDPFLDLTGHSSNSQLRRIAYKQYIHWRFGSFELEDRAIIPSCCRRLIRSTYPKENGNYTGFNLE
structure (smiles),measurement,value
Nc1ncnc2c1ncn2[C@@H]1O[C@H](COP(=O)(O)OP(=O)(O)OP(=O)(O)O)[C@@H](O)[C@H]1O [ATP],"whole-cell patch clamp, ATP-evoked currents in transfected HEK-293 cells",ATP activated biphasic currents and TNP-ATP blocked ATP-dependent currents
